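Following 48 hours of exposure in 96-well plates, responses at five concentrations were used to interpolate endpoints linearly. GI50 is the concentration that inhibits growth by half. TGI: concentration producing complete growth inhibition.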
Legend:
Experiment in all cases: NCI anticancer screen, dose series, 48 h
[1] = system: A498 renal
[2] = system: DU-145 prostate
[3] = system: EKVX NSCLC
[4] = system: HCT-116 colon
[5] = system: NCI-H522 lung
[6] = system: OVCAR-4 ovarian
[7] = system: PC-3 prostate
[8] = system: RPMI-8226 leukemia
[9] = system: SK-MEL-28 melanoma
[10] = system: SNB-75 CNS

Row | Structure (SMILES) | GI50 [1] [µM] | TGI [1] [µM] | GI50 [2] [µM] | GI50 [3] [µM] | TGI [3] [µM] | GI50 [4] [µM] | TGI [4] [µM] | GI50 [5] [µM] | TGI [5] [µM] | GI50 [6] [µM] | TGI [6] [µM] | GI50 [7] [µM] | TGI [7] [µM] | GI50 [8] [µM] | TGI [8] [µM] | TGI [9] [µM] | GI50 [10] [µM] | TGI [10] [µM] | TGI [2] [µM] | GI50 [9] [µM]
1 | S=C(Nc1ccc(Cl)cc1)Nc1ccc(-c2nc3ccccc3[nH]2)cc1 | 23.6 | 55.5 | 12.1 | 13.3 | 52.5 | 12.3 | 24.7 | 4.63 | 13.3 | 15.4 | > 84.3 | 5.37 | 35.8 | 2.23 | > 21.2 | 35.5 | 15.7 | > 55 | – | –
2 | CC(C)(O)C1OCC(C2CCC3(C)C4=CCC5C(C)(C)C(O)CCC5(C)C4CCC23C)CC1O (stereo not drawn) | – | 30.4 | – | – | 32.3 | – | 27.6 | – | 23.6 | – | 27.5 | – | 26.7 | – | 77.8 | 29.2 | – | 34.6 | 31.1 | –
3 | Cn1c(=O)c2[nH]c(CS(=O)(=O)Cc3nc4c([nH]3)c(=O)n(C)c(=O)n4C)nc2n(C)c1=O | – | > 100 | – | – | > 100 | – | > 100 | – | > 100 | – | > 100 | – | > 100 | – | > 100 | > 100 | – | > 100 | > 100 | –
4 | C=C1C(=O)OC2CC3(CO3)C3C(O)C(O)CC3(C)CC12 (stereo not drawn) | – | 64.2 | – | – | 37.2 | – | 38 | – | 27.9 | – | > 100 | – | > 100 | – | > 100 | 34.8 | – | > 100 | > 100 | –
5 | CCN(CC)CCOc1ccc(/C=C2\CC3C4CC=C5C[C@@H](N6CCCC6)CC[C@]5(C)C4CC[C@]3(C)[C@H]2O)cc1OC (stereo partly drawn) | 0.0502 | 1.46 | 4.62 | 12.9 | > 77.4 | 1.38 | 11 | 9.06 | > 30.2 | 24 | > 82.3 | 4.66 | 45.3 | 2.24 | 6.34 | > 65.7 | 14.6 | > 69.4 | 34.7 | 20.5
6 | O=C1C(=O)c2ccccc2C(O)=C1C(CCc1ccccc1)C1=C(O)c2ccccc2C(=O)C1=O | – | > 100 | – | – | > 100 | – | > 100 | – | > 100 | – | > 100 | – | > 100 | – | > 100 | > 100 | – | > 100 | 29.1 | –
7 | COc1ccc(-c2nc(-c3cn(C)c4ncccc34)cs2)cc1 | 0.776 | 93.9 | > 100 | 17.4 | > 100 | 38.4 | > 100 | 14.9 | > 100 | > 100 | > 100 | 18.3 | > 100 | 37.1 | > 100 | > 100 | > 100 | > 100 | > 100 | 79.3
8 | O=C(NC(=S)Nc1ccc(Cl)cc1)c1ccccc1 | 33 | > 100 | > 72.9 | > 100 | > 100 | > 100 | > 100 | > 100 | > 100 | > 46.5 | > 100 | > 100 | > 100 | > 100 | > 100 | > 100 | > 49.7 | > 100 | > 100 | > 100
9 | CCOC(CN=c1nc(N(C)C)ss1)OCC | – | > 100 | – | – | > 80 | – | 31.2 | – | 1.45 | – | 33.1 | – | 32 | – | 8.54 | 58.9 | – | 78.4 | > 100 | –
10 | C=C(CN1CCc2ccccc2C1)c1ccc(C(=O)Nc2ccc(N)cc2)cc1 | 21.4 | > 100 | 21.1 | 22.4 | > 100 | 11.9 | > 100 | 3.89 | 21 | 40.7 | > 100 | 3.08 | 48 | 2.5 | 19 | 72.5 | 9.87 | 53.6 | 81.3 | 24.9
11 | CC1(C)N=C(N)N=C(N)N1c1cc(Cl)ccc1Cl | > 100 | > 100 | 28.3 | > 100 | > 100 | 93.8 | > 100 | 46 | > 100 | 86.8 | > 100 | > 100 | > 100 | > 100 | > 100 | > 100 | > 100 | > 100 | > 100 | > 100
